Legend:
Assay in all cases: Bacterial panel testing, MIC by broth microdilution
Assay type in all cases: cell-based
Conditions in all cases: 20-24 hours growth
[1] = system: Enterococcus faecium
Procedure: (§1) One to three colonies of bacteria were picked from an Mueller-Hinton or Brain Heart infusion agar plate (depending on the bacterial strain) and transferred to 3 ml Mueller-Hinton broth or Brain Heart infusion media (depending on the bacterial strain). Bacteria were allowed to grow for 2-4 hours in an incubator at 37° C. Bacteria-inoculated media were dispersed in 0.9% saline to match McFarland standard density. 100 μl standardized inoculation was added to 20 ml media (dilution 1). 10 μl of the new dilution was added to 990 μl media and mixed (dilution 2). 10 μl of dilution 2 was spread on an agar plate and allowed to grow overnight. Colonies were then […].
(§2) Test compound was diluted to 10 μg/ml in dimethylsulfoxide. Four μl of Rifampicin antibiotic was loaded into row H, column 2.
(§3) All wells were then filled with 100 μl of inoculated media (dilution 1 from Example 1). A further 100 μl of the inoculated media was then added to column 2 and the contents are pipetted to thoroughly mix the contents. A full 100 μl was then transferred from column 2 and mixed into column 3. This process was continued from left to right until columns 2-12 were serially diluted, and the final draw from column 12 was discarded. The plates were covered with 3M sealing tape (plates containing Enterococcus faecium were sealed with Air Pore sealing tape) and allowed to grow for 20-24 hours. Cytotoxic wells (clear wells) are then scored and the potency of the compound was determined.

[2] = system: Eschericia coli
Procedure: as §1, §2, §3

[3] = system: Pseudomonas aeruginosa
Procedure: as §1, §2, §3

[4] = system: Salmonella choleraesuis
Procedure: as §1, §2, §3

[5] = system: Staphylococcus aureus
Procedure: as §1, §2, §3

Row | Compound | MIC EF [1] [µg/mL] | MIC EC [2] [µg/mL] | MIC PA [3] [µg/mL] | MIC SC [4] [µg/mL] | MIC SA [5] [µg/mL]
1 | C[C@H](N)C(=O)NC[C@H]1O[C@@H]2O[C@H]3[C@H](O)[C@@H](O)[C@@H](O[C@H]4[C@H](O)[C@@H](O)[C@@H](O[C@H]5[C@H](O)[C@@H](O)[C@@H](O[C@H]6[C@H](O)[C@@H](O)[C@@H](O[C@H]7[C@H](O)[C@@H](O)[C@@H](O[C@H]8[C@H](O)[C@@H](O)[C@@H](O[C@H]1[C@H](O)[C@H]2O)O[C@@H]8CNC(=O)[C@H](C)N)O[C@@H]7CNC(=O)[C@H](C)N)O[C@@H]6CNC(=O)[C@H](C)N)O[C@@H]5CNC(=O)[C@H](C)N)O[C@@H]4CNC(=O)[C@H](C)N)O[C@@H]3CNC(=O)[C@H](C)N.Cl.Cl.Cl.Cl.Cl.Cl.Cl | >200 | >200 | >200 | >200 | >200
2 | Cl.Cl.Cl.Cl.Cl.Cl.Cl.N=C(N)NCCCSC[C@H]1O[C@@H]2O[C@H]3[C@H](O)[C@@H](O)[C@@H](O[C@H]4[C@H](O)[C@@H](O)[C@@H](O[C@H]5[C@H](O)[C@@H](O)[C@@H](O[C@H]6[C@H](O)[C@@H](O)[C@@H](O[C@H]7[C@H](O)[C@@H](O)[C@@H](O[C@H]8[C@H](O)[C@@H](O)[C@@H](O[C@H]1[C@H](O)[C@H]2O)O[C@@H]8CSCCCNC(=N)N)O[C@@H]7CSCCCNC(=N)N)O[C@@H]6CSCCCNC(=N)N)O[C@@H]5CSCCCNC(=N)N)O[C@@H]4CSCCCNC(=N)N)O[C@@H]3CSCCCNC(=N)N | >200 | >200 | >200 | >200 | >200
3 | Cl.Cl.Cl.Cl.Cl.Cl.Cl.N[C@@H](CC(=O)OCc1ccccc1)C(=O)NC[C@H]1O[C@@H]2O[C@H]3[C@H](O)[C@@H](O)[C@@H](O[C@H]4[C@H](O)[C@@H](O)[C@@H](O[C@H]5[C@H](O)[C@@H](O)[C@@H](O[C@H]6[C@H](O)[C@@H](O)[C@@H](O[C@H]7[C@H](O)[C@@H](O)[C@@H](O[C@H]8[C@H](O)[C@@H](O)[C@@H](O[C@H]1[C@H](O)[C@H]2O)O[C@@H]8CNC(=O)[C@@H](N)CC(=O)OCc1ccccc1)O[C@@H]7CNC(=O)[C@@H](N)CC(=O)OCc1ccccc1)O[C@@H]6CNC(=O)[C@@H](N)CC(=O)OCc1ccccc1)O[C@@H]5CNC(=O)[C@@H](N)CC(=O)OCc1ccccc1)O[C@@H]4CNC(=O)[C@@H](N)CC(=O)OCc1ccccc1)O[C@@H]3CNC(=O)[C@@H](N)CC(=O)OCc1ccccc1 | >200 | >200 | >200 | >200 | >200
4 | Cl.Cl.Cl.Cl.Cl.Cl.Cl.NCCCCCSC[C@H]1O[C@@H]2O[C@H]3[C@H](O)[C@@H](O)[C@@H](O[C@H]4[C@H](O)[C@@H](O)[C@@H](O[C@H]5[C@H](O)[C@@H](O)[C@@H](O[C@H]6[C@H](O)[C@@H](O)[C@@H](O[C@H]7[C@H](O)[C@@H](O)[C@@H](O[C@H]8[C@H](O)[C@@H](O)[C@@H](O[C@H]1[C@H](O)[C@H]2O)O[C@@H]8CSCCCCCN)O[C@@H]7CSCCCCCN)O[C@@H]6CSCCCCCN)O[C@@H]5CSCCCCCN)O[C@@H]4CSCCCCCN)O[C@@H]3CSCCCCCN | >200 | >200 | >200 | >200 | >200
5 | Cl.Cl.Cl.Cl.Cl.Cl.Cl.N[C@@H](Cc1ccc(O)cc1)C(=O)NC[C@H]1O[C@@H]2O[C@H]3[C@H](O)[C@@H](O)[C@@H](O[C@H]4[C@H](O)[C@@H](O)[C@@H](O[C@H]5[C@H](O)[C@@H](O)[C@@H](O[C@H]6[C@H](O)[C@@H](O)[C@@H](O[C@H]7[C@H](O)[C@@H](O)[C@@H](O[C@H]8[C@H](O)[C@@H](O)[C@@H](O[C@H]1[C@H](O)[C@H]2O)O[C@@H]8CNC(=O)[C@@H](N)Cc1ccc(O)cc1)O[C@@H]7CNC(=O)[C@@H](N)Cc1ccc(O)cc1)O[C@@H]6CNC(=O)[C@@H](N)Cc1ccc(O)cc1)O[C@@H]5CNC(=O)[C@@H](N)Cc1ccc(O)cc1)O[C@@H]4CNC(=O)[C@@H](N)Cc1ccc(O)cc1)O[C@@H]3CNC(=O)[C@@H](N)Cc1ccc(O)cc1 | >200 | >200 | >200 | >200 | >200
6 | Cl.Cl.Cl.Cl.Cl.Cl.Cl.NC(CCC(=O)OCc1ccccc1)C(=O)NCC1OC2OC3C(CNC(=O)C(N)CCC(=O)OCc4ccccc4)OC(OC4C(CNC(=O)C(N)CCC(=O)OCc5ccccc5)OC(OC5C(CNC(=O)C(N)CCC(=O)OCc6ccccc6)OC(OC6C(CNC(=O)C(N)CCC(=O)OCc7ccccc7)OC(OC7C(CNC(=O)C(N)CCC(=O)OCc8ccccc8)OC(OC8C(CNC(=O)C(N)CCC(=O)OCc9ccccc9)OC(OC1C(O)C2O)C(O)C8O)C(O)C7O)C(O)C6O)C(O)C5O)C(O)C4O)C(O)C3O (centres unmarked) | >200 | >200 | >200 | >200 | >200
7 | Cl.Cl.Cl.Cl.Cl.Cl.Cl.NC(CS)C(=O)NCC1OC2OC3C(CNC(=O)C(N)CS)OC(OC4C(CNC(=O)C(N)CS)OC(OC5C(CNC(=O)C(N)CS)OC(OC6C(CNC(=O)C(N)CS)OC(OC7C(CNC(=O)C(N)CS)OC(OC8C(CNC(=O)C(N)CS)OC(OC1C(O)C2O)C(O)C8O)C(O)C7O)C(O)C6O)C(O)C5O)C(O)C4O)C(O)C3O (centres unmarked) | >200 | >200 | >200 | >200 | >200
8 | CC(C)(C)OC(=O)NCCCC[C@H](NC(=O)[C@@H](N)CCCCNC(=O)OC(C)(C)C)C(=O)NCC1OC2OC3C(CNC(=O)[C@H](CCCCNC(=O)OC(C)(C)C)NC(=O)[C@@H](N)CCCCNC(=O)OC(C)(C)C)OC(OC4C(CNC(=O)[C@H](CCCCNC(=O)OC(C)(C)C)NC(=O)[C@@H](N)CCCCNC(=O)OC(C)(C)C)OC(OC5C(CNC(=O)[C@H](CCCCNC(=O)OC(C)(C)C)NC(=O)[C@@H](N)CCCCNC(=O)OC(C)(C)C)OC(OC6C(CNC(=O)[C@H](CCCCNC(=O)OC(C)(C)C)NC(=O)[C@@H](N)CCCCNC(=O)OC(C)(C)C)OC(OC7C(CNC(=O)[C@H](CCCCNC(=O)OC(C)(C)C)NC(=O)[C@@H](N)CCCCNC(=O)OC(C)(C)C)OC(OC8C(CNC(=O)[C@H](CCCCNC(=O)OC(C)(C)C)NC(=O)[C@@H](N)CCCCNC(=O)OC(C)(C)C)OC(OC1C(O)C2O)C(O)C8O)C(O)C7O)C(O)C6O)C(O)C5O)C(O)C4O)C(O)C3O (some centres unmarked) | >200 | >200 | >200 | >200 | >200
9 | OC1C2OC(CNc3nc4ccccc4[nH]3)C(OC3OC(CNc4nc5ccccc5[nH]4)C(OC4OC(CNc5nc6ccccc6[nH]5)C(OC5OC(CNc6nc7ccccc7[nH]6)C(OC6OC(CNc7nc8ccccc8[nH]7)C(OC7OC(CNc8nc9ccccc9[nH]8)C(OC8OC(CNc9nc%10ccccc%10[nH]9)C(O2)C(O)C8O)C(O)C7O)C(O)C6O)C(O)C5O)C(O)C4O)C(O)C3O)C1O (centres unmarked) | >200 | >200 | >200 | >200 | >200
10 | C=CCNCC1OC2OC3C(CNCC=C)OC(OC4C(CNCC=C)OC(OC5C(CNCC=C)OC(OC6C(CNCC=C)OC(OC7C(CNCC=C)OC(OC8C(CNCC=C)OC(OC1C(O)C2O)C(O)C8O)C(O)C7O)C(O)C6O)C(O)C5O)C(O)C4O)C(O)C3O (centres unmarked) | >200 | >200 | >200 | >200 | >200
11 | Cl.Cl.Cl.Cl.Cl.Cl.Cl.N=C(N)NCCCCSCC1OC2OC3C(CSCCCCNC(=N)N)OC(OC4C(CSCCCCNC(=N)N)OC(OC5C(CSCCCCNC(=N)N)OC(OC6C(CSCCCCNC(=N)N)OC(OC7C(CSCCCCNC(=N)N)OC(OC8C(CSCCCCNC(=N)N)OC(OC1C(O)C2O)C(O)C8O)C(O)C7O)C(O)C6O)C(O)C5O)C(O)C4O)C(O)C3O (centres unmarked) | >200 | >200 | >200 | >200 | >200
12 | CC(C)NCC1OC2OC3C(CNC(C)C)OC(OC4C(CNC(C)C)OC(OC5C(CNC(C)C)OC(OC6C(CNC(C)C)OC(OC7C(CNC(C)C)OC(OC8C(CNC(C)C)OC(OC1C(O)C2O)C(O)C8O)C(O)C7O)C(O)C6O)C(O)C5O)C(O)C4O)C(O)C3O (centres unmarked) | >200 | >200 | >200 | >200 | >200
13 | CC(CCN)CCSCC1OC2OC3C(CSCCC(C)CCN)OC(OC4C(CSCCC(C)CCN)OC(OC5C(CSCCC(C)CCN)OC(OC6C(CSCCC(C)CCN)OC(OC7C(CSCCC(C)CCN)OC(OC8C(CSCCC(C)CCN)OC(OC1C(O)C2O)C(O)C8O)C(O)C7O)C(O)C6O)C(O)C5O)C(O)C4O)C(O)C3O.Cl.Cl.Cl.Cl.Cl.Cl.Cl (centres unmarked) | >100 | >100 | >100 | >100 | >100

Source: patent publication US20110071108A1, “Beta-Cyclodextrin Derivatives as Antibacterial Agents” (Pinnacle Pharmaceuticals, Inc., priority 2005, published 2011)
